Measurements: PubChem BioAssay AID2742 (NMMLSC, 2010)
“And” between values parts separate entries of the source, which are not always exact repeats. Equal values may be shown once. The source made the active and inactive calls.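 How the source made its calls: active means fitted half-maximal concentration for changing background-corrected GFP signal at or below a set limit; inactive means the rest.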

Test: TOR pathway reporter MEP2-GFP, concentration series – S. cerevisiae, flow cytometry GFP, MLPCN hits, dose response (AID 2742);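 further: GFP tag reports level of MEP2 protein as a downstream target of TOR signalling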
Details: S. cerevisiae MEP2-GFP strain, flow cytometry fluorescence, 3 h; at 33 µM (top of the series)

Compound	GFP fluorescence (kMESF), higher = increase
C#CCOCCOCCOCCNc1nc(N2CCN(C(=O)CCCCCCCCCCNC(=O)[C@@H](CCC(=O)O)n3cc(CCCCCN)nn3)CC2)nc(N2CCN(C(=O)CCCCCCCCCCNC(=O)[C@H](CCCCN)n3cc(C[C@@H](C)CC)nn3)CC2)n1	3.84 kMESF (inactive)
COc1ccc(NC2=C(Cl)C(=O)N(CCc3ccccc3)C2=O)c(OC)c1	1.67 kMESF (inactive)
O=[N+]([O-])c1cc(F)c2cccnc2c1O	5.96 kMESF (inactive)
CCOC(=O)CSC1=NC(=O)/C(=C/c2ccc(Br)cc2)S1	4.7 kMESF (inactive)
O=C(Nc1ccccc1)ON=C1CCCC1	2.76 kMESF (inactive)
COc1ccc(N2C(=O)C(Cl)=C(Oc3cccc(OC)c3)C2=O)cc1	4.18 kMESF (inactive)
N#C/C(=C\c1ccccn1)c1nc2ccccc2s1	58.7 kMESF (inactive)
COc1ccc2c(c1)S/C(=C\C(=O)c1ccncc1)N2C	2.67 kMESF (inactive)
CCN1/C(=C/C(C)=C/c2sc3ccccc3[n+]2CC)Sc2ccccc21	4.91 kMESF (inactive)
Cc1ccc(N2C(=O)CC(Sc3ncn[nH]3)C2=O)cc1C (stereo unspecified)	3.74 kMESF (inactive)
COc1ccc(C(=O)NC(=S)NNC(=O)CCc2ccccc2)cc1	3.68 kMESF (inactive)
Cc1ccc(/C=C2\SC(=S)N(CC3CCCO3)C2=O)o1 (stereo unspecified)	4.83 kMESF (inactive)
Cc1ccc(C(=O)O/N=C(\N)Cc2cccs2)c(Cl)c1	4.31 kMESF (inactive)
COc1ccc(OCC(=O)NNC(=S)NC(=O)C2CCCCC2)cc1	3.25 kMESF (inactive)
O=C1Nc2ccc(Br)cc2/C1=C/C(=O)c1ccc2c(c1)OCO2	4.66 kMESF (inactive)
O=C1C=CC(=O)N1c1ccc(Sc2ccc([N+](=O)[O-])cc2)cc1	2.59 kMESF (inactive)
O=C(OCC(=O)N1CCN(C(=O)c2ccco2)CC1)c1cc(-c2ccc(F)cc2)nc2ccccc12	4.46 kMESF (inactive) and 3.18 kMESF (inactive)
COc1ccc(C2(C)ON(c3ccccc3C(F)(F)F)C2=O)cc1 (stereo unspecified)	2.87 kMESF (inactive)
COc1ccc2c(/C=C/c3cc[n+](C)cc3)c[nH]c2c1	4.86 kMESF (inactive)
O=C(c1ccc(C(=O)N2CCCc3ccccc32)s1)N1CCCc2ccccc21	3.28 kMESF (inactive)
CS(=O)(=O)c1nc(-c2cccs2)cc(C(F)(F)F)n1	6.41 kMESF (inactive)

Compound	GFP fluorescence (kMESF), higher = increase
O=C(Oc1oc(-c2ccco2)nc1C=Nc1ccc(Cl)cc1)c1ccco1	3.6 kMESF (inactive)
O=C1c2cccc3c([N+](=O)[O-])ccc(c23)C(=O)N1O	22.1 kMESF (inactive)
Cc1cccc(Nc2nc(-c3ccccn3)cs2)n1	5.01 kMESF (inactive)
O=C1C=C(Nc2ccc(Cl)cc2)C(=O)N1c1ccc(Cl)cc1	1.97 kMESF (inactive)
COc1ccc(C=C2C(=O)c3ccccc3C2=O)cc1O	2.67 kMESF (inactive)
Cc1ccc(O)c(N=Nc2nccs2)c1	2.87 kMESF (inactive)
O=C(NNC(=S)NC(=O)c1ccco1)c1ccc(F)cc1	4.11 kMESF (inactive)
O=S(=O)(CCN(CCS(=O)(=O)C(F)(F)F)CC1CCCO1)C(F)(F)F (stereo unspecified)	4.69 kMESF (inactive)
CC(=O)Nc1ncnc2c1c(-c1ccc(Cl)cc1)nn2C(C)(C)C	2.08 kMESF (inactive)
Cc1ccccc1[C@@]1(C)ON(c2ccccc2C(F)(F)F)C1=O	3.31 kMESF (inactive)
C#CCOCCOCCOCCNc1nc(N2CCN(C(=O)CCCCCCCCCCNC(=O)[C@H](CCCCN)n3cc(CCCC(=O)O)nn3)CC2)nc(N2CCN(C(=O)CCCCCCCCCCNC(=O)[C@H](CCCN=C(N)N)n3cc(C[C@@H](C)CC)nn3)CC2)n1	3.78 kMESF (inactive)
O=c1/c(=C/c2cccc3ccccc23)sc2ncnn12	4.23 kMESF (inactive)
COc1cccc(N=Nc2ccc(O)c3ncccc23)c1	5.8 kMESF (inactive)
O=C1C2C3C=CC(CO)(O3)C2C(=O)N1c1ccc(-c2ccccc2)cc1 (stereo unspecified)	4.74 kMESF (inactive)
O=C1CC(c2ccccc2)=NN1c1nc(-c2ccccc2)cs1	2.83 kMESF (inactive)
O=C(/C=C/Sc1ncn[nH]1)c1ccc(Cl)cc1	4.24 kMESF (inactive)
C/C(=N/NC(=O)c1ccc(C(C)(C)C)cc1)c1ccccn1	5.35 kMESF (inactive)
O=C1Nc2ccccc2/C1=C\C(=O)c1ccccc1	5.08 kMESF (inactive)
CN1C(=O)/C(=N\OC(=O)c2cccc3ccccc23)c2ccccc21	3.68 kMESF (inactive)
CC(Oc1cccc(Cl)c1)C(=O)Nc1nc(-c2ccccn2)cs1 (stereo unspecified)	5.7 kMESF (inactive)
Clc1ccc(N=c2ssnc2Cl)cc1	4.8 kMESF (inactive)

Compound	GFP fluorescence (kMESF), higher = increase
CC1=NNC(=O)/C1=C\c1cn(-c2ccccc2)nc1-c1cccs1	3.14 kMESF (inactive)
Cc1cc(C(=O)Nc2nc(-c3ccccn3)cs2)ccc1[N+](=O)[O-]	4.48 kMESF (inactive)
Cc1cc(Br)c2c(c1)/C(=C/C(=O)c1cccs1)C(=O)N2	3.78 kMESF (inactive)
Cc1ccc(NC(=O)CCc2ccccc2)cc1S(=O)(=O)N1CCOCC1	1.72 kMESF (inactive)
CCc1cccc2sc(N3CCN(C(=O)c4ccc([N+](=O)[O-])o4)CC3)nc12	0.16 kMESF (inactive)
CC1=CC(=O)C(C(C)C)=C/C1=N/OS(=O)(=O)c1ccccc1	3.47 kMESF (inactive)
C#CCOCCOCCOCCNc1nc(N2CCN(C(=O)CCCCCCCCCCNC(=O)[C@H](CCCCN)n3cc(CCO)nn3)CC2)nc(N2CCN(C(=O)CCCCCCCCCCNC(=O)[C@H](CCCCN)n3cc(C[C@@H](C)CC)nn3)CC2)n1	3.23 kMESF (inactive)
C#CCOc1c(Br)cc(/C=C2/C(=O)ON=C2C)cc1OC	3.64 kMESF (inactive)
Cc1cccc(N=C2NC(=O)/C(=C/C=C/c3ccco3)S2)c1C	6.73 kMESF (inactive)
ClC(Cl)(c1nnnn1-c1ccccc1)c1nnnn1-c1ccccc1	4.4 kMESF (inactive)
COc1ccc(NC(=O)/C(Cl)=C(/Cl)S(=O)Cc2ccccc2)cn1 (stereo unspecified)	4.75 kMESF (inactive)
COc1cc(/C=C2/C(=O)ON=C2c2ccccc2)ccc1O	3.68 kMESF (inactive)
Cc1c(NC2=C(Cl)C(=O)N(c3ccccc3)C2=O)c(=O)n(-c2ccccc2)n1C	2.91 kMESF (inactive)
Cc1ccc(/C(N)=N/OC(=O)c2ccc(F)cc2)cc1	2.2 kMESF (inactive)
CCOC(=O)c1c(C)oc2c1c(C(c1cccnc1)N1CCOCC1)c(O)c1ccccc12 (stereo unspecified)	4.43 kMESF (inactive)
Cc1ccccc1OCCOC(=O)c1ccc(S(=O)(=O)N2CCCC2)cc1	1.52 kMESF (inactive)
COc1cc(C=C2C(=O)c3ccccc3C2=O)cc(OC)c1	2.05 kMESF (inactive)
COc1ccc(NC(=O)/C(C#N)=C/c2ncc([N+](=O)[O-])n2C)c(OC)c1	4.5 kMESF (inactive)
O=C(/C=C/c1ccc(F)cc1)NC(=S)NNC(=O)c1cnccn1	4.9 kMESF (inactive)
O=C(Nc1ccc(O)cc1)C1CCCN1S(=O)(=O)c1ccc(F)cc1 (stereo unspecified)	1.62 kMESF (inactive)
COC(CNC(=O)c1ccc2c3c(onc13)-c1ccccc1C2=O)OC	-0.77 kMESF (inactive)

Compound	GFP fluorescence (kMESF), higher = increase
C/C(=N\NC(=O)c1cc2ccccc2cc1O)c1ccccn1	3.61 kMESF (inactive)
Cc1ccc(C(=O)Oc2oc(-c3ccco3)nc2C=Nc2ccc(Cl)cc2)cc1	3.92 kMESF (inactive)
O=C(Nc1cccc(-c2csc(Nc3ccccc3)n2)c1)c1ccccc1	2.61 kMESF (inactive)
Cc1ccccc1C(=O)NNC(=S)NC(=O)c1ccc(Cl)cc1Cl	6.21 kMESF (inactive)
CCN(CC)c1ccc(/C=C2/C(=O)c3ccc(C(=O)O)cc3C2=O)cc1	3.08 kMESF (inactive)
CCOc1ccc(N/N=C(/C#N)C(N)=O)cc1	2.43 kMESF (inactive)
O=C1c2sc3nc4ccccc4n3c2C(=O)N1c1ccccc1Cl	3.06 kMESF (inactive)
CCc1ccc(C(=O)/C=C/c2ccc([N+](=O)[O-])o2)cc1	6.79 kMESF (inactive)
Cc1ccccc1N=Nc1ccc(O)c2ncccc12	3.51 kMESF (inactive)
COc1cccc2sc(Nc3nc(-c4ccccn4)cs3)nc12	5.3 kMESF (inactive)
CCOC(=O)CCS(=O)(=O)c1nc(-c2ccccc2)cc(C(F)(F)F)n1	7.24 kMESF (inactive)
COc1ccccc1-c1nc2s/c(=C\c3cccs3)c(=O)n2n1	5.28 kMESF (inactive)
COc1cc(CNC(=O)CCCCCCC(C)C)ccc1O	2.32 kMESF (inactive)
O=C(OCn1ncc(Br)c(Br)c1=O)c1c(F)cccc1F	4.49 kMESF (inactive)
Cc1ccccc1N1C(=O)C(Cl)=C(N2CCN(c3ccccc3)CC2)C1=O	2.9 kMESF (inactive)
CCn1c(/C=C/c2ccc([N+](=O)[O-])o2)nc2ccccc2c1=O	2.26 kMESF (inactive)
C=CCOc1ccc(C(=O)/C=C2/C(=O)Nc3ccccc32)cc1	3.85 kMESF (inactive)
COC(=O)CCCC1=CC2=CC(=O)C(C)(OC(=O)CCc3ccccc3)C(=O)C2=CO1 (stereo unspecified)	1.97 kMESF (inactive)
